How the values were obtained:
Conditions in all cases: incubation time: 72 h
CAL-148 [1] = assay: normalised viability (% of control), CellTiter-Blue; higher = more viable cells (about 100 = DMSO control)
In short: (§1)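 The reported figure is normalised viability at a single listed concentration of the series. Breast cancer cell lines (20 µl suspension) went onto 384-well plates holding compound in 5 µl medium for 72 h. CellTiter-Blue (2.5 µl, 2 h, 37 °C) was read by fluorescence at 560/590 nm, and each plate was scaled to vehicle at 100 and a positive kill control at 0.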

CAL-51 [2] = assay: as above
In short: as §1

CAL-85-1 = assay: as above
In short: as §1

DU-4475 [3] = assay: as above
In short: as §1

HDQ-P1 [4] = assay: as above
In short: as §1

MDA-MB-453 [5] = assay: as above
In short: as §1

CAL-120 [6] = assay: normalised response (% of control), CellTiter-Glo; higher = more viable cells (100 = DMSO, 0 = benzethonium chloride kill control)
In short: (§2)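 Normalised signals at single concentrations make up the values. They come from breast cancer cell lines seeded (20 µl suspension) into 384-well plates with compound at 5 concentrations in 10-fold steps over a compound-specific 10,000-fold range, incubated 72 h, and read for CellTox Green fluorescence then CellTiter-Glo luminescence. Each plate was normalised to 0.1 % DMSO (100) and a positive kill control (0).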

CAL-148 [7] = assay: as above
In short: as §2

HCC1143 [8] = assay: as above
In short: as §2

MDA-MB-436 = assay: as above
In short: as §2

MDA-MB-453 [9] = assay: as above
In short: as §2

MDA-MB-468 = assay: as above
In short: as §2

BT-474 = assay: drug sensitivity score (DSS), CellTox Green (DSS (AUC-based score)); higher = stronger drug effect (viability inhibition or cytotoxicity); extreme values may be limits of the assay
In short: (§3)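 The drug sensitivity score reflects the area under a fitted dose-response curve. To obtain it, breast cancer cells in 20 µl suspension were seeded into 384-well plates containing compound at 5 concentrations, 10-fold apart over a compound-specific 10,000-fold range, and incubated 72 h. CellTox Green fluorescence (485/520 nm) was read first and CellTiter-Glo luminescence second, after 10 min at room temperature. Each plate was normalised to 0.1 % DMSO and a positive kill control.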

CAL-120 [10] = assay: as above
In short: as §3

CAL-148 [11] = assay: as above
In short: as §3

CAL-51 [12] = assay: as above
In short: as §3

DU-4475 [13] = assay: as above
In short: as §3

HCC1143 [14] = assay: as above
In short: as §3

HCC1937 = assay: as above
In short: as §3

HDQ-P1 [15] = assay: as above
In short: as §3

Hs578T = assay: as above
In short: as §3

MCF-10A = assay: as above
In short: as §3

MDA-MB-231 = assay: as above
In short: as §3

MDA-MB-453 [16] = assay: as above
In short: as §3

MFM-223 = assay: as above
In short: as §3

Structure (SMILES) | normalised viability (CAL-148 [1]) [%] | normalised viability (CAL-51 [2]) [%] | normalised viability (CAL-85-1) [%] | normalised viability (DU-4475 [3]) [%] | normalised viability (HDQ-P1 [4]) [%] | normalised viability (MDA-MB-453 [5]) [%] | normalised response (CAL-120 [6]) [%] | normalised response (CAL-148 [7]) [%] | normalised response (HCC1143 [8]) [%] | normalised response (MDA-MB-436) [%] | normalised response (MDA-MB-453 [9]) [%] | normalised response (MDA-MB-468) [%] | drug sensitivity score (BT-474) | drug sensitivity score (CAL-120 [10]) | drug sensitivity score (CAL-148 [11]) | drug sensitivity score (CAL-51 [12]) | drug sensitivity score (DU-4475 [13]) | drug sensitivity score (HCC1143 [14]) | drug sensitivity score (HCC1937) | drug sensitivity score (HDQ-P1 [15]) | drug sensitivity score (Hs578T) | drug sensitivity score (MCF-10A) | drug sensitivity score (MDA-MB-231) | drug sensitivity score (MDA-MB-453 [16]) | drug sensitivity score (MFM-223)
NC1(c2ccc(-c3nc4ccn5c(=O)[nH]nc5c4cc3-c3ccccc3)cc2)CCC1 [MK-2206] (1000 nM) | 36.8 | 45.3 | 58.4 | 53.5 | 86.4 | 11 | 92.5 | 59.7 | 84 | 98.2 | 36.6 | 83 |  |  |  |  |  |  |  |  |  |  |  |  | 
O=C(c1cc(Cc2n[nH]c(=O)c3ccccc23)ccc1F)N1CCN(C(=O)C2CC2)CC1 [Olaparib] (10000 nM) | 56.1 | 39.3 | 80.7 | 71.7 | 96.5 | 78.1 | 82.3 | 64.6 | 87.3 | 62.2 | 144 | 69.5 |  |  |  |  |  |  |  |  |  |  |  |  | 
COc1cc2c(N3CCN(C(=O)Nc4ccc(OC(C)C)cc4)CC3)ncnc2cc1OCCCN1CCCCC1 [Tandutinib] (1000 nM) | 71.1 | 58 | 93 | 58.4 | 128 | 92.9 | 106 | 97.8 | 95.7 | 109 | 99.1 | 99.7 |  |  |  |  |  |  |  |  |  |  |  |  | 
C[C@@H](C(=O)O)c1ccc(-c2ccccc2)c(F)c1 [Tarenflurbil] (10000 nM) | 89.9 | 111 | 91.4 | 95.1 | 129 | 84 | 104 | 88.3 | 98.7 | 108 | 93.7 | 91.5 |  |  |  |  |  |  |  |  |  |  |  |  | 
CCc1c(C(=O)C(N)=O)c2c(OCC(=O)O)cccc2n1Cc1ccccc1 [Varespladib] |  |  |  |  |  |  |  |  |  |  |  |  | 0 | 0 | 0 | 0 | 0 | 0 | 0 | 0 | 0 | 0 | 0 | 0 | 0
